Data from paper PMC5063400, “A Natural Mutation in Helix 5 of the Ligand Binding Domain of Glucocorticoid Receptor Enhances Receptor-Ligand Interaction” (PLoS ONE, 2016).
Substitutions are numbered along the chain they refer to. Entries after “also recorded” stand apart in the source; their conditions may differ. Where two headings read alike, the source gives them in different places.

What was measured:
[1] = biological target: T1, Ala610 GR (Sus scrofa, UniProt Q9N1U3, V610A); conditions: [3H]-dexamethasone, whole Cos-7 cells, mean ± SE
Method: (§1) A whole-cell GR binding assay was adapted from the protocol previously described for peripheral blood mononuclear cells (PBMC). Cos-7 cells were seeded in 10-cm dishes and T75 flasks at a density of 1.75x10^5 cells/mL. After 24 hours in culture, cells were transfected with pCMV-GRA610 or pCMV-GRV610 using either 10 μg plasmid and 50 μL Fugene HD (Promega) for dishes or 15 μg plasmid and 75 μL Fugene HD for flasks. After another 24 hours in culture, media were replaced with serum-free DMEM to avoid contamination with steroids. One day later cells were pelleted, washed with PBS, and resuspended in DMEM supplemented with 10 mM HEPES buffer. […] After incubation, cells were washed with ice-cold PBS and centrifuged (10 min, 400 × g, 4°C) three times. Cell pellets were then resuspended in 100 μL PBS and mixed with 3 mL scintillation fluid (Rotiszint eco plus, Carl Roth GmbH, Karlsruhe, Germany). Radioactivity was measured in a spectral liquid scintillation counter (Tri-Carb 2900TR, Perkin Elmer Inc., USA) at 50% efficiency. The experiment was performed three times.
(§2) Saturation binding analysis included in nonlinear regression models implemented in GraphPad Prism 5 was used to fit binding curves to estimate the dissociation constant (KD, mean ± SE), maximum specific binding (Bmax, mean ± SE), and differences in these values dependent upon GR genotype.

[2] = biological target: AlaVal610 GR (Sus scrofa, UniProt Q9N1U3); conditions: pituitary cytosol
Method: (§3) Pituitary glands were quickly removed from pigs after electronarcotization and exsanguination, snap-frozen, and stored at -80°C. […] Nine pools per genotype, each containing two to three samples, were analyzed. In total 40 pituitaries were used. Pituitaries from homozygous carriers of the alternative variant were not available due to its low frequency.
(§4) GR binding analysis was performed on the pooled samples as previously described. Briefly, tissues were homogenized in ice-cold 10 mM Tris-HCl buffer, pH 7.5, containing 12.5 mM EDTA, 10 mM sodium molybdate, […] sucrose, and 5 mM dithiothreitol using an electric homogenizer (Ultra-Turrax, IKA, Staufen, Germany). The homogenate was centrifuged at 120,000 × g for 60 min at 0–4°C to isolate cytosol (supernatant fraction). […] Non-specific binding was determined with a parallel incubation containing 500-fold excess of RU 28362 (kindly donated by Roussel Uclaf, France), which binds selectively to GR. The separation of bound from free ligand was performed by precipitation with dextran-coated charcoal and the receptor-[^3H]-steroid complexes were counted in the Tri-Carb 2900TR scintillation counter at 50% efficiency. Protein concentrations for each pool were determined with bovine serum albumin as a standard. Binding values were corrected for the amount of protein input. Individual binding curves for each pool were fitted using GraphPad Prism 5 as described above. Resulting KD and Bmax values were compared between genotypes using a mixed linear model implemented in SAS. The model included the effect of genotype and experimental batch.

[3] = biological target: T1, Ala610 GR; conditions: [3H]-dexamethasone, pituitary cytosol, homozygous wild-type
Method: as §3, §4

[4] = biological target: GFP-tagged Ala610 GR (Sus scrofa, UniProt Q9N1U3, V610A); conditions: Cos-7 cells, after stimulation with dexamethasone
Description: (§5) Green fluorescent protein (GFP)-tagged expression vectors were generated to track subcellular distribution and movement of both GR variants. In brief, the EGFP region was amplified from EGFP-N1 (Clontech, Heidelberg, Germany), using primers EGFP_N_fw and EGFP_N_rev (Table 1) and the proofreading PrimeSTAR HS DNA Polymerase (MoBiTec, Göttingen, Germany). The product was inserted into the pCMV-Tag1 vector (Agilent Technologies, Waldbronn, Germany) using NotI restriction sites. The resulting plasmid was further digested with BamHI and BglII restriction enzymes to insert BclI digested GR-alpha fragments. Therefore, GR-alpha fragments were amplified using cDNA of two individuals homozygous for the c.1829C>T SNP with primers GR_N-Flag_fw2 and GR_N-Flag_rev (Table 1). […]
(§6) Cos-7 cells were seeded in culture dishes (Greiner Bio-One, Frickenhausen, Germany) or 8-well chamber slides (VWR International, Hannover, Germany) for live cell imaging at a density of 1.6x10^5 cells/mL in DMEM with 10% FCS and transfected one day later with pCMV-GFP-GRA610 or pCMV-GFP-GRV610 using a Lipofectamine:DNA-ratio of 3:1. […] Before visualization by microscopy, media were replaced with phenol red-free DMEM supplemented with 5% charcoal stripped FCS, and the dish or slide to be analyzed was placed in a microscope incubator at 37°C and 5% CO2.

[5] = biological target: GFP-tagged Val610 GR (Sus scrofa, UniProt Q9N1U3); conditions: Cos-7 cells, after stimulation with dexamethasone
Description: as §5, §6

[6] = biological target: Val610 GR (Sus scrofa, UniProt Q9N1U3); assay: cell-based
Method: as §1, §2

[7] = biological target: T2, porcine GR Val610 (mutant) (Sus scrofa, UniProt Q9N1U3); assay: Transactivation assay (MMTV-luciferase reporter) in Cos-7 cells, mutant Val610 GR
T2 sequence (Q9N1U3 1-782): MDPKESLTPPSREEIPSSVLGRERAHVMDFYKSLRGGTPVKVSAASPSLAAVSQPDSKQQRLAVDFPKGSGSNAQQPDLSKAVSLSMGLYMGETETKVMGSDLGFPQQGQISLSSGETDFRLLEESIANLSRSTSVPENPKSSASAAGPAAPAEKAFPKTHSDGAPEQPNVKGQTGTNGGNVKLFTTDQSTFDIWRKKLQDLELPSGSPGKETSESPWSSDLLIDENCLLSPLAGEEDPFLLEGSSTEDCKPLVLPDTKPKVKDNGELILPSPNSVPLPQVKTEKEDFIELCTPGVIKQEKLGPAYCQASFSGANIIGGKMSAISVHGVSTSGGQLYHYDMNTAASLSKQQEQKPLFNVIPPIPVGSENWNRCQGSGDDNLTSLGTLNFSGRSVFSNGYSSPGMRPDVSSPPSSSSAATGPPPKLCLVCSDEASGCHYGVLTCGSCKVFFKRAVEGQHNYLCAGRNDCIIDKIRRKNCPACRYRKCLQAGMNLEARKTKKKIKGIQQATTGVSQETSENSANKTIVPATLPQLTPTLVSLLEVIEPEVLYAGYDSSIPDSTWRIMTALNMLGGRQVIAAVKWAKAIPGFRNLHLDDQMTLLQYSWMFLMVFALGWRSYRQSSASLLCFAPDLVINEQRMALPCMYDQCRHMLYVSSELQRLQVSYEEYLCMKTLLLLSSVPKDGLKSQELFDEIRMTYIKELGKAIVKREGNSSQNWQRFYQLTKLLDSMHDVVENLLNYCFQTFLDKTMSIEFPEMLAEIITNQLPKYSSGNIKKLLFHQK
Method: Porcine GR expression plasmids (pCMV-GRA610 or pCMV-GRV610) harboring the SNP NR3C1 c.1829C>T (causing the Ala610Val substitution) were used for a transactivation assay in Cos-7 cells as previously described [13]. In brief, monkey kidney Cos-7 cells were seeded in 96-well plates at a density of 2.5×10^4 cells/well in DMEM (Invitrogen, Karlsruhe, Germany) with 10% FCS. Twenty-four hours after seeding, cells were co-transfected with 200 ng of expression vector, 100 ng of pGL4.36 reporter (Promega, Mannheim, Germany) and 2 ng of pRL-SV40 plasmid (Promega) according to the Lipofectamine 2000 protocol (Invitrogen). The reporter plasmid pGL4.36 expresses firefly luciferase under control of the glucocorticoid-inducible MMTV (Murine Mammary Tumor Virus Long Terminal repeat) promoter while the pRL-SV40 vector constitutively expresses the Renilla luciferase and was used to normalize for transfection efficiency. […] Therefore, cell media was replaced by DMEM supplemented with respective steroid concentrations and 10% charcoal-stripped FCS (PAA Laboratories, Coelbe, Germany). Twenty-four hours after stimulation, firefly and Renilla luciferase activities were measured using the Dual-Glo Luciferase Assay System (Promega) in a DTX 880 Multimode Detector (Beckman Coulter, Krefeld, Germany).

[8] = biological target: T3, porcine GR Ala610 (wild-type) (Sus scrofa, UniProt Q9N1U3, V610A); assay: Transactivation assay (MMTV-luciferase reporter) in Cos-7 cells, wild-type Ala610 GR; type: cell-based; conditions: for EC50: Cos-7 cells
T3 construct: expressed in transfected cells; host or cells: Cos-7
T3 sequence (Q9N1U3 1-782 V610A): T2 sequence (Q9N1U3 1-782) with V610A
Method: Porcine GR expression plasmids (pCMV-GRA610 or pCMV-GRV610) harboring the SNP NR3C1 c.1829C>T (causing the Ala610Val substitution) were used for a transactivation assay in Cos-7 cells as previously described. In brief, monkey kidney Cos-7 cells were seeded in 96-well plates at a density of 2.5×10^4 cells/well in DMEM (Invitrogen, Karlsruhe, Germany) with 10% FCS. Twenty-four hours after seeding, cells were co-transfected with 200 ng of expression vector, 100 ng of pGL4.36 reporter (Promega, Mannheim, Germany) and 2 ng of pRL-SV40 plasmid (Promega) according to the Lipofectamine 2000 protocol (Invitrogen). The reporter plasmid pGL4.36 expresses firefly luciferase under control of the glucocorticoid-inducible MMTV (Murine Mammary Tumor Virus Long Terminal repeat) promoter while the pRL-SV40 vector constitutively expresses the Renilla luciferase and was used to normalize for transfection efficiency. […] Therefore, cell media was replaced by DMEM supplemented with respective steroid concentrations and 10% charcoal-stripped FCS (PAA Laboratories, Coelbe, Germany). Twenty-four hours after stimulation, firefly and Renilla luciferase activities were measured using the Dual-Glo Luciferase Assay System (Promega) in a DTX 880 Multimode Detector (Beckman Coulter, Krefeld, Germany).
Transcript abundance was corrected for the copy number of expression plasmid.
For all steroids except testosterone, two separate experiments were performed in triplicate. Data were adjusted for transfection efficiency and the resulting luciferase ratios were normalized to cells that were treated with ethanol only. Fold-changes of transcriptional activity were compared using a generalized mixed linear model including fixed effects of genotype, hormone concentration, and the interaction of the two. Data were analyzed using SAS V9.3 software (SAS Institute, Cary, NC, USA). Least-square means were compared at each concentration and p-values were adjusted by Dunnett’s post-hoc test. Fold-change values were further adjusted to maximum relative luciferase induction and dose-response curves, EC50, and significance of EC50 differences were estimated using dose-response equation of GraphPad Prism 5 (GraphPad Software Inc, San Diego, CA).

[9] = wide concentration range 0.01 nM to 10 μM, 24 h stimulation

T1 sequence (Q9N1U3 whole entry V610A): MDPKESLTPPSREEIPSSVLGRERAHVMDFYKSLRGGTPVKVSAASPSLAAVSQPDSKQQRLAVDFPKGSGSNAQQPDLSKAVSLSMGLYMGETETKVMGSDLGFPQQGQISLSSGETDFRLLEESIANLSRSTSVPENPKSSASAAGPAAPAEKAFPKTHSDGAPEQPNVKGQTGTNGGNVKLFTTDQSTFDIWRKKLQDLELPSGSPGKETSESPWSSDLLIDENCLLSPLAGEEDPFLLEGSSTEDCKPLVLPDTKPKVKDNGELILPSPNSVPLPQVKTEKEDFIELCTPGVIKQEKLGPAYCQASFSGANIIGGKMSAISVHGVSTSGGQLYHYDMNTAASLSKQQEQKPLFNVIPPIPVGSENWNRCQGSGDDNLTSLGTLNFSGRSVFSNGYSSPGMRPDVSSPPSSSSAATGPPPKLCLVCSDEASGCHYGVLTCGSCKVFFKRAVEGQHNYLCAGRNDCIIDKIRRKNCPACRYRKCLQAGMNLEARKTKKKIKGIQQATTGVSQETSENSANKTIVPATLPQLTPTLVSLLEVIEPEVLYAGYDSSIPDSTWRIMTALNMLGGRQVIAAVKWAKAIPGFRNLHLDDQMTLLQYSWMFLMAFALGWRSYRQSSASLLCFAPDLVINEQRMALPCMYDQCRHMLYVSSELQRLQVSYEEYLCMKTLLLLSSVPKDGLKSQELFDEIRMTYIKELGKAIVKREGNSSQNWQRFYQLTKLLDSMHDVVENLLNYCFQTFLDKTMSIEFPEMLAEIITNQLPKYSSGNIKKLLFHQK
Chain of GFP-tagged Ala610 GR (Q9N1U3 whole entry V610A, the tested form may be a part): as the sequence (Q9N1U3 whole entry V610A) above

C[C@@H]1C[C@H]2[C@@H]3CCC4=CC(=O)C=C[C@]4(C)[C@@]3(F)[C@@H](O)C[C@]2(C)[C@@]1(O)C(=O)CO [dexamethasone]
Bmax (maximum specific binding) [1]: 1479 ± 79.7 fmol/mL | Kd ([2]; [3H]-dexamethasone 0.2 to 24 nM, heterozygous carriers): 0.529 ± 0.068 nM | Bmax ([2]; [3H]-dexamethasone, heterozygous carriers): 63.4 ± 5.0 fmol/mg protein | increased affinity of heterozygous carriers compared to wild-type controls [2]: 1.7 fold | Bmax [3]: 62.2 ± 5.9 fmol/mg protein | time to full translocation into the nucleus [4]: ≤ 15 min | time to full translocation into the nucleus [5]: ≤ 15 min | Kd [6]: 6.08 nM | Bmax (maximum specific binding) ([6]; [3H]-dexamethasone, whole Cos-7 cells, mean ± SE): 1204 ± 118.1 fmol/mL

C[C@]12CC[C@H]3[C@@H](CCC4=CC(=O)CC[C@@]43C)[C@@H]1CC[C@@H]2O [testosterone]
activation of the MMTV-driven luciferase reporter ([7]; Val610 GR, data not shown): unable to activate; also recorded: remained insensitive | activation of the MMTV-driven luciferase reporter ([8]; data not shown): unable to activate

C[C@]12CCC(=O)C=C1CC[C@@H]1[C@@H]2[C@@H](O)C[C@@]2(C)[C@H]1CC[C@]2(O)C(=O)CO [cortisol]
EC50 [7]: 36.5 nM | EC50 ([7]; EC50 of transactivation, Val610 GR, Cos-7 cells, narrow concentration range): 22.9 nM | EC50 ([8]; narrow concentration range): 37.2 nM | EC50 [8, 9]: 44.7 nM

C[C@]12CCC(=O)C=C1CC[C@@H]1[C@@H]2[C@@H](O)C[C@]2(C=O)[C@@H](C(=O)CO)CC[C@@H]12 [aldosterone]
EC50 [7]: 50.6 nM | EC50 [8, 9]: 161 nM
